pEC50, pKi: −log10 of the molar value.
Columns and labels:
Histamine H4 receptor [1] = molecular target: T1, Histamine H4 receptor (Homo sapiens, UniProt Q9H3N8); experiment: Agonist activity at human recombinant histamine H4 receptor expressed in SK-N-MC cells assessed as effect on forskolin-stimulated cAMP-mediated reporter gene activity; format: functional, cell-based
Histamine H4 receptor [2] = molecular target: T1, Histamine H4 receptor; experiment: Displacement of [3H]histamine from human recombinant histamine H4 receptor
Histamine H4 receptor [3] = molecular target: T1, Histamine H4 receptor; experiment: Antagonist activity at human recombinant histamine H4 receptor expressed in SK-N-MC cells assessed as inhibition of forskolin-stimulated cAMP-mediated reporter gene activity; format: functional, cell-based; settings: read-out: pA2 (converted)

| pEC50 (Histamine H4 receptor [1]) | pKi (Histamine H4 receptor [2]) | Kb (Histamine H4 receptor [3]) [nM] | Structure (SMILES) |
| --- | --- | --- | --- |
| 7.60 | 8.10 |  | CN[C@@H]1CCN(c2ccnc(NC(C)C)n2)C1 |
| 5.50 |  |  | CN[C@@H]1CCN(c2ccnc(NC(C)C)c2)C1 |
|  | 7.01 |  | CN[C@@H]1CCN(c2ccnc(N3CCCCC3)c2)C1 |
| 7.32 | 8.15 |  | CCCCNc1cc(N2CC[C@@H](NC)C2)ccn1 |
|  | 6.96 |  | CCCCNc1cc(N2CC[C@H](NC)C2)ccn1 |
|  | 6.93 |  | CN[C@H]1CCN(c2ccnc(NC(C)C)n2)C1 |
| 8.40 | 8.52 |  | CCCCNc1nccc(N2CC[C@@H](NC)C2)n1 |
| 5.50 | 9.10 | 79.4 | CN[C@@H]1CCN(c2ccnc(NC3CC4CCC3C4)n2)C1 (stereo partly specified) |
| < 5.00 | 8.10 |  | CN[C@H]1CCN(c2ccnc(NC3CC4CCC3C4)n2)C1 (stereo partly specified) |
| 5.50 | 7.26 |  | CN[C@@H]1CCN(c2cnnc(NCC(C)C)c2)C1 |
|  | 6.41 |  | CN[C@H]1CCN(c2cnnc(NCC(C)C)c2)C1 |

Continued, molecule first:

| Structure (SMILES) | pEC50 (Histamine H4 receptor [1]) | pKi (Histamine H4 receptor [2]) | Kb (Histamine H4 receptor [3]) [nM] |
| --- | --- | --- | --- |
| CN1CCN(c2ccnc(-c3ccsc3)c2)CC1 |  | 7.68 |  |
| CN[C@@H]1CCN(c2ccnc(-c3ccsc3)c2)C1 |  | 6.67 |  |
| CN1CCN(c2ccnc(N3CCCCC3)c2)CC1 |  | 6.85 |  |
| CCCCNc1cc(N2CCN(C)CC2)ccn1 |  | 6.75 |  |
| CN1CCN(c2ccnc(NC3CCCC3)c2)CC1 |  | 7.80 |  |
| CN[C@@H]1CCN(c2ccnc(NC3CC4CCC3C4)c2)C1 (stereo partly specified) | < 5.00 |  | 6.31 |
| CN[C@H]1CCN(c2ccnc(NC3CC4CCC3C4)c2)C1 (stereo partly specified) | < 5.00 | 8.22 |  |
| CC(C)Nc1nccc(N2CCN(C)CC2)n1 | 6.95 | 6.93 |  |
| CC(C)CNc1nccc(N2CCN(C)CC2)n1 | 7.08 |  |  |
| CCCCNc1nccc(N2CCN(C)CC2)n1 | 7.04 | 7.26 |  |
| CN1CCN(c2ccnc(NC3CCCC3)n2)CC1 | 7.12 | 7.20 |  |
| CN1CCN(c2ccnc(NC3CC4CCC3C4)n2)CC1 (stereo unspecified) | 7.70 |  |  |
| CC(C)CNc1cc(N2CCN(C)CC2)cnn1 |  | 5.00 |  |
| CN[C@@H]1CCN(c2cnnc(NC3CCCC3)c2)C1 |  | 8.22 | 10 |
| CN[C@H]1CCN(c2cnnc(NC3CCCC3)c2)C1 |  | 6.62 |  |
| CN1CCN(c2cnnc(NC3CC4CCC3C4)c2)CC1 (stereo unspecified) |  | 6.44 |  |
| CC(C)c1cc(N2CC[C@@H](N)C2)nc(N)n1 [JNJ-39758979] |  | 7.92 |  |

Reference: ChEMBL document CHEMBL3393002, “Diaminopyrimidines, diaminopyridines and diaminopyridazines as histamine H4 receptor modulators” (Bioorg Med Chem Lett, 2015)
